Tests used:
BCL6 [1] = biological target: T1, BCL6 (Homo sapiens (Human), UniProt P41182); assay: BCL6 TR-FRET assay (BCL6-Avitag-Biotin / BCoR-Cy5 peptide); format: binding; settings: for IC50: class symbols A-D, read-out: IC50 (nM)***
Outline: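 TR-FRET displacement assay: biotinylated His-SUMO-BCL6-Avitag (2 nM) pre-incubated 30 min at room temperature with compound (12-point 3-fold titration), then BCoR-Cy5 peptide (100 nM) and Eu-streptavidin (2 nM) added. Buffer: 50 mM HEPES pH 7.5, 125 mM NaCl, 0.01% Triton X, glutathione or DTT, 0.03% BSA. Read after 2 h.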

BCL6 [2] = biological target: T1, BCL6; assay: Immunofluorescence high content imaging of BCL6 degradation in T47D cells; format: cell-based; settings: for Dmax: T47D
Outline: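 T47D cells were treated for 3 days at 37 °C with 11-point 3-fold dilutions of bifunctional degrader (final top 0.1 or 1 μM). BCL6 was detected by immunofluorescence after PFA fixation, with Hoechst and cell mask counterstains, and imaged at 10×, 4 fields/well.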

| SMILES | IC50 (BCL6 [1]) | Dmax (BCL6 [2]; maximum, class symbols A-C) | DC50 (BCL6 [2]; class symbols A-D, read-out: EC50 (nM)*) | EC50 (BCL6 [1]) | IC50 (BCL6 [2]) | Dmax (BCL6 [2]) |
| --- | --- | --- | --- | --- | --- | --- |
| CC(=O)COc1cc2cc(Nc3nc(C#CC4CCCN(Cc5ccc6c(c5)C(=O)N(C5CCC(=O)NC5=O)C6=O)C4)ncc3Cl)ccc2n(C)c1=O (stereo not shown) [compound 173, 5-((3-((5-chloro-4-((1-methyl-2-oxo-3-(2-oxopropoxy)-1,2-dihydroquinolin-6-yl)amino)pyrimidin-2-yl)ethynyl)piperidin-1-yl)methyl)-2-(2,6-dioxopiperidin-3-yl)isoindoline-1,3-dione] | ≥ 100 nM | < 50% | 10 to 50 nM |  |  |  |
| CNC(=O)/C=C/c1cc2cc(Nc3nc(N4CCC(CN5CCN(c6ccc7c(c6)C(=O)N(C6CCC(=O)NC6=O)C7=O)CC5)CC4)ncc3Cl)ccc2n(C)c1=O (stereo not shown) [compound 174, (E)-3-(6-((5-chloro-2-(4-((4-(2-(2,6-dioxopiperidin-3-yl)-1,3-dioxoisoindolin-5-yl)piperazin-1-yl)methyl)piperidin-1-yl)pyrimidin-4-yl)amino)-1-methyl-2-oxo-1,2-dihydroquinolin-3-yl)-N-methylacrylamide] | 10 to 50 nM | 50 to 70% |  |  |  |  |
| CC(=O)COc1cc2cc(Nc3nc(N4CCC(CN5CCN(c6ccc7c(c6)CN(C6CCC(=O)NC6=O)C7=O)CC5)CC4)ncc3Cl)ccc2n(C)c1=O (stereo not shown) [compound 175, 3-(5-(4-((1-(5-chloro-4-((1-methyl-2-oxo-3-(2-oxopropoxy)-1,2-dihydroquinolin-6-yl)amino)pyrimidin-2-yl)piperidin-4-yl)methyl)piperazin-1-yl)-1-oxoisoindolin-2-yl)piperidine-2,6-dione] | < 10 nM | 50 to 70% |  |  |  |  |
| CC(=O)COc1cc2cc(Nc3nc(N4CCC(CN(C)CC#Cc5ccc6c(c5)C(=O)N(C5CCC(=O)NC5=O)C6=O)CC4)ncc3Cl)ccc2n(C)c1=O (stereo not shown) [compound 176, 5-(3-(((1-(5-chloro-4-((1-methyl-2-oxo-3-(2-oxopropoxy)-1,2-dihydroquinolin-6-yl)amino)pyrimidin-2-yl)piperidin-4-yl)methyl)(methyl)amino)prop-1-yn-1-yl)-2-(2,6-dioxopiperidin-3-yl)isoindoline-1,3-dione] | ≥ 100 nM | < 50% |  |  |  |  |
| CNC(=O)COc1cc2cc(Nc3nc(N4CCN(C(C)(C)C5CCN(c6ccc7c(c6)C(=O)N(C6CCC(=O)NC6=O)C7=O)CC5)CC4)ncc3Cl)ccc2n(C)c1=O (stereo not shown) [compound 203, 2-((6-((5-chloro-2-(4-(2-(1-(2-(2,6-dioxopiperidin-3-yl)-1,3-dioxoisoindolin-5-yl)piperidin-4-yl)propan-2-yl)piperazin-1-yl)pyrimidin-4-yl)amino)-1-methyl-2-oxo-1,2-dihydroquinolin-3-yl)oxy)-N-methylacetamide] |  |  |  | > 100 nM | < 10 nM | ≥ 70% |
| Cn1cc(-c2cc3cc(Nc4nc(N5CCC(CN6CCN(c7ccc8c(c7)C(=O)N(C7CCC(=O)NC7=O)C8=O)CC6)CC5)ncc4Cl)ccc3n(C)c2=O)cn1 (stereo not shown) [compound 205, 5-(4-((1-(5-chloro-4-((1-methyl-3-(1-methyl-1H-pyrazol-4-yl)-2-oxo-1,2-dihydroquinolin-6-yl)amino)pyrimidin-2-yl)piperidin-4-yl)methyl)piperazin-1-yl)-2-(2,6-dioxopiperidin-3-yl)isoindoline-1,3-dione] |  |  |  | > 100 nM | ≥ 100 nM |  |
| CC(=O)c1cc2cc(Nc3nc(N4CCC(CN5CCN(c6ccc7c(c6)C(=O)N(C6CCC(=O)NC6=O)C7=O)CC5)CC4)ncc3Cl)ccc2n(C)c1=O (stereo not shown) [compound 206, 5-(4-((1-(4-((3-acetyl-1-methyl-2-oxo-1,2-dihydroquinolin-6-yl)amino)-5-chloropyrimidin-2-yl)piperidin-4-yl)methyl)piperazin-1-yl)-2-(2,6-dioxopiperidin-3-yl)isoindoline-1,3-dione] |  |  |  | > 100 nM | 50 to 100 nM |  |

The next lines start with the values.

| IC50 (BCL6 [1]) | Dmax (BCL6 [2]; maximum, class symbols A-C) | DC50 (BCL6 [2]; class symbols A-D, read-out: EC50 (nM)*) | EC50 (BCL6 [1]) | IC50 (BCL6 [2]) | Dmax (BCL6 [2]) | SMILES |
| --- | --- | --- | --- | --- | --- | --- |
|  |  |  | 10 to 50 nM | ≥ 100 nM | 50 to 70% | CC(=O)COc1cc2cc(Nc3nc(N4CCN(C)C(COc5ccc6c(c5)C(=O)N(C5CCC(=O)NC5=O)C6=O)C4)ncc3Cl)ccc2n(C)c1=O (stereo not shown) [compound 194, 5-((4-(5-chloro-4-((1-methyl-2-oxo-3-(2-oxopropoxy)-1,2-dihydroquinolin-6-yl)amino)pyrimidin-2-yl)-1-methylpiperazin-2-yl)methoxy)-2-(2,6-dioxopiperidin-3-yl)isoindoline-1,3-dione] |
|  |  |  | < 10 nM | 10 to 50 nM | < 50% | CNC(=O)COc1cc2cc(Nc3nc(N4CC5CC4CN5CC4CCN(c5ccc6c(c5)C(=O)N(C5CCC(=O)NC5=O)C6=O)CC4)ncc3Cl)ccc2n(C)c1=O (stereo not shown) [compound 195, 2-((6-((5-chloro-2-(5-((1-(2-(2,6-dioxopiperidin-3-yl)-1,3-dioxoisoindolin-5-yl)piperidin-4-yl)methyl)-2,5-diazabicyclo [2.2.1]heptan-2-yl)pyrimidin-4-yl)amino)-1-methyl-2-oxo-1,2-dihydroquinolin-3-yl)oxy)-N-methylacetamide] |
|  |  |  | 10 to 50 nM | 10 to 50 nM | 50 to 70% | CNC(=O)COc1cc2cc(Nc3nc(N4CCC(CN5CCN(c6ccc7c(c6)C(=O)N(C6CCC(=O)NC6=O)C7=O)CC5=O)CC4)ncc3Cl)ccc2n(C)c1=O (stereo not shown) [compound 196, 2-((6-((5-chloro-2-(4-((4-(2-(2,6-dioxopiperidin-3-yl)-1,3-dioxoisoindolin-5-yl)-2-oxopiperazin-1-yl)methyl)piperidin-1-yl)pyrimidin-4-yl)amino)-1-methyl-2-oxo-1,2-dihydroquinolin-3-yl)oxy)-N-methylacetamide] |
|  |  |  | 50 to 100 nM | 50 to 100 nM | 50 to 70% | CNC(=O)COc1cc2cc(Nc3cc(N4CCC(CN5CCN(c6ccc7c(c6)C(=O)N(C6CCC(=O)NC6=O)C7=O)CC5)CC4)ncc3Cl)ccc2n(C)c1=O (stereo not shown) [compound 197, 2-((6-((5-chloro-2-(4-((4-(2-(2,6-dioxopiperidin-3-yl)-1,3-dioxoisoindolin-5-yl)piperazin-1-yl)methyl)piperidin-1-yl)pyridin-4-yl)amino)-1-methyl-2-oxo-1,2-dihydroquinolin-3-yl)oxy)-N-methylacetamide] |
|  |  |  | > 100 nM | 50 to 100 nM | 50 to 70% | CCNC(=O)COc1cc2cc(Nc3nc(N4CCC(CN5CCN(c6ccc7c(c6)C(=O)N(C6CCC(=O)NC6=O)C7=O)CC5)CC4)ncc3Cl)ccc2n(C)c1=O (stereo not shown) [compound 198, 2-((6-((5-chloro-2-(4-((4-(2-(2,6-dioxopiperidin-3-yl)-1,3-dioxoisoindolin-5-yl)piperazin-1-yl)methyl)piperidin-1-yl)pyrimidin-4-yl)amino)-1-methyl-2-oxo-1,2-dihydroquinolin-3-yl)oxy)-N-ethylacetamide] |
|  |  |  | < 10 nM | 10 to 50 nM | 50 to 70% | CC(=O)COc1cc2cc(Nc3nc(N4CCC(CN5CC(C6CN(c7ccc8c(c7)C(=O)N(C7CCC(=O)NC7=O)C8=O)C6)C5)CC4)ncc3Cl)ccc2n(C)c1=O (stereo not shown) [compound 199, 5-(1′-((1-(5-chloro-4-((1-methyl-2-oxo-3-(2-oxopropoxy)-1,2-dihydroquinolin-6-yl)amino)pyrimidin-2-yl)piperidin-4-yl)methyl)-[3,3′-biazetidin]-1-yl)-2-(2,6-dioxopiperidin-3-yl)isoindoline-1,3-dione] |
|  |  |  | > 100 nM | 10 to 50 nM | 50 to 70% | CNC(=O)COc1cc2cc(Nc3nc(N4CCC(C(C)(C)N5CCN(c6ccc7c(c6)C(=O)N(C6CCC(=O)NC6=O)C7=O)CC5)CC4)ncc3Cl)ccc2n(C)c1=O (stereo not shown) [compound 200, 2-((6-((5-chloro-2-(4-(2-(4-(2-(2,6-dioxopiperidin-3-yl)-1,3-dioxoisoindolin-5-yl)piperazin-1-yl)propan-2-yl)piperidin-1-yl)pyrimidin-4-yl)amino)-1-methyl-2-oxo-1,2-dihydroquinolin-3-yl)oxy)-N-methylacetamide] |
|  |  |  | 10 to 50 nM | ≥ 100 nM | ≥ 70% | CNC(=O)COc1cc2cc(Nc3nc(N4CCN(CC5CCN(c6ccc7c(c6)C(=O)N(C6CCC(=O)NC6=O)C7=O)CC5)C(=O)C4)ncc3Cl)ccc2n(C)c1=O (stereo not shown) [compound 201, 2-((6-((5-chloro-2-(4-((1-(2-(2,6-dioxopiperidin-3-yl)-1,3-dioxoisoindolin-5-yl)piperidin-4-yl)methyl)-3-oxopiperazin-1-yl)pyrimidin-4-yl)amino)-1-methyl-2-oxo-1,2-dihydroquinolin-3-yl)oxy)-N-methylacetamide] |
|  |  |  | > 100 nM | 50 to 100 nM | < 50% | CNC(=O)COc1cc2cc(Nc3nc(N4CCC(CN5CCN(c6ccc7c(c6)C(=O)N(C6CCC(=O)NC6=O)C7=O)CC5)CC4)ccc3Cl)ccc2n(C)c1=O (stereo not shown) [compound 202, 2-((6-((3-chloro-6-(4-((4-(2-(2,6-dioxopiperidin-3-yl)-1,3-dioxoisoindolin-5-yl)piperazin-1-yl)methyl)piperidin-1-yl)pyridin-2-yl)amino)-1-methyl-2-oxo-1,2-dihydroquinolin-3-yl)oxy)-N-methylacetamide] |
|  |  |  | 10 to 50 nM | < 10 nM | < 50% | CNC(=O)COc1cc2cc(Nc3nc(N4CCC(CN5CC6CC5CN6c5ccc6c(c5)C(=O)N(C5CCC(=O)NC5=O)C6=O)CC4)ncc3Cl)ccc2n(C)c1=O (stereo not shown) [compound 204, 2-((6-((5-chloro-2-(4-((5-(2-(2,6-dioxopiperidin-3-yl)-1,3-dioxoisoindolin-5-yl)-2,5-diazabicyclo [2.2.1]heptan-2-yl)methyl)piperidin-1-yl)pyrimidin-4-yl)amino)-1-methyl-2-oxo-1,2-dihydroquinolin-3-yl)oxy)-N-methylacetamide] |

Reference: patent US12310975B2, “Modulators of BCL6 proteolysis and associated methods of use” (Arvinas Operations, Inc., priority 2019, dated 2025)
